Experimental data reported in BindingDB's records for patent US12466809 (Dana-Farber Cancer Institute, 2025).

biological target: Cyclin-A2/Cyclin-dependent kinase 2 (Homo sapiens, UniProt P24941); experiment: Biochemical Assay
Excerpt: CDK2 and CDK5 IC50 data were attained through the use of Invitrogen™ commercial assays. The method for CDK2 (assay ID: 315, kinase|Z'-LYTE™|CDK2/Cyclin A|Km app) used a 10-point titration. The method for CDK5 (assay ID: 318, kinase|Z'-LYTE™|CDK5/p25|Km app) used a 10-point titration. All the bifunctional compounds showed potent biochemical inhibition on both CDK2/5 enzymes.

Structure (SMILES) | IC50
NC(=O)c1c(F)cccc1Nc1nc(NC2CCN(S(=O)(=O)CCNC(=O)CCCCCCCCC#Cc3cccc4c3CN(C3CCC(=O)NC3=O)C4=O)CC2)ncc1Br (stereo unspecified) [US12466809, Compound 14] | 57.2 nM
NC(=O)c1c(F)cccc1Nc1nc(NC2CCN(S(=O)(=O)CCNC(=O)CCC(=O)NCCCCCNc3cccc4c3C(=O)N(C3CCC(=O)NC3=O)C4=O)CC2)ncc1Br (stereo unspecified) [US12466809, Compound 13] | 3.8 nM
Cc1ncsc1-c1ccc([C@H](C)NC(=O)[C@@H]2C[C@@H](O)CN2C(=O)[C@@H](NC(=O)CCOCCOCCC(=O)NCCS(=O)(=O)N2CCC(Nc3ncc(Br)c(Nc4cccc(F)c4C(N)=O)n3)CC2)C(C)(C)C)cc1 [US12466809, Compound 11] | 6.8 nM

More lines, now with the values ahead:

IC50 | Structure (SMILES)
> 370 nM | O=C(CCCCCCCCC#Cc1cccc2c1CN(C1CCC(=O)NC1=O)C2=O)NCCS(=O)(=O)N1CCC(Nc2ncc(Br)c(Nc3cccc4c3OCO4)n2)CC1 (stereo unspecified) [US12466809, Compound 16]
5.3 nM | Cc1ncsc1-c1ccc([C@H](C)NC(=O)[C@@H]2C[C@@H](O)CN2C(=O)[C@@H](NC(=O)CCC(=O)NCCS(=O)(=O)N2CCC(Nc3ncc(Br)c(Nc4cccc(F)c4C(N)=O)n3)CC2)C(C)(C)C)cc1 [US12466809, Compound 12]
50 nM | NC(=O)c1c(F)cccc1Nc1nc(NC2CCN(S(=O)(=O)CCNC(=O)CCCCCCCCCCc3cccc4c3CN(C3CCC(=O)NC3=O)C4=O)CC2)ncc1Br (stereo unspecified) [US12466809, Compound 15]
